According to patent publication US5807721A, “Compound FO-1289, process of production with aspergillus and strain” (The Kitasato Institute, priority 1992, dated 1998):

target: rat acyl CoA cholesterol acyltransferase; test: Inhibitory action on rat acyl CoA cholesterol acyltransferase (rat liver microsome crude enzyme, [1-14C]oleoyl-CoA); assay type: biochemical; conditions: rat liver microsome fraction, pH 7.4, 37° C., 30 minutes, 30 μM oleoyl-CoA, 30 μM cholesterol; read-out: IC50 (50% inhibition concentration on the enzyme)
Experimental: An inhibitory action of the FO-1289 substance for acyl CoA cholesterol acyltransferase is tested according to the method of Kyoda et al. (J. Antibiotics, 44: 136 1991). A crude enzyme prepared from rat liver microsome fraction is added in the 100 mM phosphate buffer solution (pH 7.4) […] containing 300 μM bovine serum albumin. 30 μM (1-^14 C ) oleoyl-CoA (0.02 μCi) and 30 μM cholesterol (solubilized with 1/30 w/w Triton WR-1339) and incubaatd at 37° C. for 30 minutes. Total lipid is extracted with a mixture of chloroform-methanol (2:1), then each lipid is separated by thin layer chromatography (Kiesel gel GF254, developer:petroleum ether--diethyl ether--acetic acid=90:10:1). Radioactivity incorporated in the cholesterol ester fraction is analysed by RI scanner (Ambis Corp.) to assay an activity of acyl CoA cholesterol acyltransferase.

| IC50 [nM] | Structure (SMILES) |
| --- | --- |
| 40 | CC(=O)OCC1(C)C(OC(C)=O)CCC2(C)C1CC(OC(C)=O)C1(C)Oc3cc(-c4cccnc4)oc(=O)c3C(O)C21 (stereo not shown) [FO-1289A] |
| 30 | CCC(=O)OC1CC2C(C)(COC(C)=O)C(OC(C)=O)CCC2(C)C2C(O)c3c(cc(-c4cccnc4)oc3=O)OC12C (stereo not shown) [FO-1289C] |
| 150 | CCC(=O)OC1CCC2(C)C(CC(OC(C)=O)C3(C)Oc4cc(-c5cccnc5)oc(=O)c4C(O)C23)C1(C)COC(C)=O (stereo not shown) [FO-1289D] |
| 100 | CCC(=O)OCC1(C)C(OC(C)=O)CCC2(C)C1CC(OC(C)=O)C1(C)Oc3cc(-c4cccnc4)oc(=O)c3C(O)C21 (stereo not shown) [FO-1289B] |
